≈ marks a conversion by molar mass, not a printed value.
Tests used:
[1] = tested on: Human immunodeficiency virus 1; assay: Antiviral activity against HIV1 3B infected in human MT4 cells assessed as virus-induced cytopathic effect incubated for 5 days by MTT assay; type: functional, organism-based; conditions: Human immunodeficiency virus 1, 3B, MT4, 120 h
[2] = tested on: Human immunodeficiency virus 1; assay: Antiviral activity against HIV1 RES056 infected in human MT4 cells assessed as inhibition of virus-induced cytopathic effect incubated for 5 days by MTT assay; type: functional, organism-based; conditions: Human immunodeficiency virus 1, RES056, MT4, 120 h
[3] = Cytotoxicity against human MT4 cells assessed as reduction in cell viability incubated for 5 days by MTT assay; type: cell-based; conditions: time 5 day
[4] = Selectivity index, ratio of CC50 for human MT4 cells to EC50 for antiviral activity against HIV1 3B infected in human MT4 cells; type: toxicity, cell-based; conditions: read-out: Ratio CC50/EC50
[5] = Selectivity index, ratio of CC50 for human MT4 cells to EC50 for antiviral activity against HIV1 RES056 infected in human MT4 cells; type: toxicity, cell-based; conditions: read-out: Ratio CC50/EC50
[6] = tested on: Human immunodeficiency virus 1; assay: Antiviral activity against HIV1 harboring RT L100I mutant infected in human MT4 cells assessed as inhibition of virus-induced cytopathic effect incubated for 5 days by MTT assay; type: functional, organism-based; conditions: Human immunodeficiency virus 1, MT4, 120 h
[7] = tested on: Human immunodeficiency virus 1; assay: Antiviral activity against HIV1 harboring RT K103N mutant infected in human MT4 cells assessed as inhibition of virus-induced cytopathic effect incubated for 5 days by MTT assay; type: functional, organism-based; conditions: Human immunodeficiency virus 1, MT4, 120 h
[8] = tested on: Human immunodeficiency virus 1; assay: Antiviral activity against HIV1 harboring RT Y181C mutant infected in human MT4 cells assessed as inhibition of virus-induced cytopathic effect incubated for 5 days by MTT assay; type: functional, organism-based; conditions: Human immunodeficiency virus 1, MT4, 120 h
[9] = tested on: Human immunodeficiency virus 1; assay: Antiviral activity against HIV1 harboring RT Y188L mutant infected in human MT4 cells assessed as inhibition of virus-induced cytopathic effect incubated for 5 days by MTT assay; type: functional, organism-based; conditions: Human immunodeficiency virus 1, MT4, 120 h
[10] = tested on: Human immunodeficiency virus 1; assay: Antiviral activity against HIV1 harboring RT E138K mutant infected in human MT4 cells assessed as inhibition of virus-induced cytopathic effect incubated for 5 days by MTT assay; type: functional, organism-based; conditions: Human immunodeficiency virus 1, MT4, 120 h
[11] = tested on: Human immunodeficiency virus 1; assay: Antiviral activity against HIV1 harboring RT F227L/V106Amutant infected in human MT4 cells assessed as inhibition of virus-induced cytopathic effect incubated for 5 days by MTT assay; type: functional, organism-based; conditions: Human immunodeficiency virus 1, MT4, 120 h
[12] = Resistance index, ratio of EC50 for antiviral activity against HIV1 expressing RT L100I mutant infected in human MT4 cells to EC50 for antiviral activity against HIV1 3B infected in human MT4 cells; type: functional
[13] = Resistance index, ratio of EC50 for antiviral activity against HIV1 expressing RT K103N mutant infected in human MT4 cells to EC50 for antiviral activity against HIV1 3B infected in human MT4 cells; type: functional
[14] = Resistance index, ratio of EC50 for antiviral activity against HIV1 expressing RT Y181C mutant infected in human MT4 cells to EC50 for antiviral activity against HIV1 3B infected in human MT4 cells; type: functional
[15] = Resistance index, ratio of EC50 for antiviral activity against HIV1 expressing RT Y188L mutant infected in human MT4 cells to EC50 for antiviral activity against HIV1 3B infected in human MT4 cells; type: functional
[16] = Resistance index, ratio of EC50 for antiviral activity against HIV1 expressing RT E138K mutant infected in human MT4 cells to EC50 for antiviral activity against HIV1 3B infected in human MT4 cells; type: functional
[17] = Resistance index, ratio of EC50 for antiviral activity against HIV1 expressing RT F227L/V106A mutant infected in human MT4 cells to EC50 for antiviral activity against HIV1 3B infected in human MT4 cells; type: functional
[18] = Inhibition of HIV1 reverse transcriptase assessed as reduction in biotin-dUTP incorporation into template preincubated for 1 hr followed by template/primer and dNTP addition and measured after 1 hr by ELISA; set-up: species or system Human immunodeficiency virus 1
[19] = Solubility of compound in water at pH 7.4; type: physicochemical
[20] = Solubility of compound in water at pH 7; type: physicochemical
[21] = Solubility of compound in water at pH 2; type: physicochemical

SMILES	EC50 [1] [µM]	EC50 [2] [µM]	CC50 at 120 h [3] [µM]	selectivity ratio [4]	selectivity ratio [5]	EC50 [6] [µM]	EC50 [7] [µM]	EC50 [8] [µM]	EC50 [9] [µM]	EC50 [10] [µM]	EC50 [11] [µM]	Ratio EC50 [12]	Ratio EC50 [13]	Ratio EC50 [14]	Ratio EC50 [15]	Ratio EC50 [16]	Ratio EC50 [17]	IC50 [18] [µM]	solubility [19] [µg/mL]	solubility [20] [µg/mL]	also measured
Cc1cc(C#N)cc(C)c1Oc1nc(NC2CCN(CCN3CCOCC3)CC2)nc2sccc12	0.065	> 37.9	37.9	579	< 1	14.7	0.61	6.9	45.2	0.586	18.7	224.5	9.3	105.5	690.6	9	285.5	2.36	19.7 (≈ 40 µM)	29.3 (≈ 59.5 µM)	solubility [21]: 243 µg/mL (≈ 493 µM)
Cc1cc(C#N)cc(C)c1Oc1nc(NC2CCN(CCN3CCOCC3)CC2)nc2ccsc12	0.087	> 36.8	36.8	423	< 1	8.7	1.04	8.35	9.39	0.437	7.14	99.9	11.9	95.8	107.9	5	81.9	2.53	15.6 (≈ 31.7 µM)	24.4 (≈ 49.5 µM)	solubility [21]: 207 µg/mL (≈ 420 µM)
Cc1cc(C#N)cc(C)c1Oc1nc(Nc2ccc(C#N)cc2)nc(N)c1Br [ETRAVIRINE]		0.038	> 4.59	> 1640	> 122	0.005	0.003	0.014	0.014	0.007	0.018	1.9	1	4.9	4.9	2.6	6.3	0.059			
COc1cc2nc(NC3CCN(CC(=O)N4CCOCC4)CC3)nc(Oc3c(C)cc(C#N)cc3C)c2cc1OC	2.18	> 211	211	97	< 1	> 211	24.8	> 211	> 211	> 211	0.974	>96.8	11.4	>96.8	>96.8	>96.8	0.4				
Cc1cc(C#N)cc(C)c1Oc1nc(NC2CCN(CC(=O)N3CCOCC3)CC2)nc2c1CCC2	0.106	> 73.5	73.5	696	< 1	15.9	2.54	10.6	6.48	1.12	27	150.4	24.1	100.8	61.4	10.6	256				
Cc1cc(C#N)cc(C)c1Oc1nc(NC2CCN(CC(=O)N3CCOCC3)CC2)nc2sccc12	0.082	> 36.3	36.3	442	< 1	3.67	1.62	3.64	7.18	0.334	13.8	44.8	19.8	44.3	87.5	4.1	168	1.49	27.6 (≈ 54.5 µM)	34.2 (≈ 67.5 µM)	solubility [21]: 228 µg/mL (≈ 450 µM)

Reference: ChEMBL document CHEMBL4765457, “Targeting dual tolerant regions of binding pocket: Discovery of novel morpholine-substituted diarylpyrimidines as potent HIV-1 NNRTIs with significantly improved water solubility” (Eur J Med Chem, 2020)
